Test results: ChEMBL document CHEMBL1201862, “PubChem BioAssay data set” (2004)
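All cell lines were grown in 96-well plates and treated with compound for 48 hours. At the GI50, growth is halved.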 Active and inactive are the calls of the source. Cut-off read from the data, not from the text of the source: active = GI50 up to about 1.1 µM and inactive = higher.

Experiments:
Assay in all cases: NCI tumour cell line growth inhibition, 48 h
NCI-H23 = system: NCI-H23
IGROV-1 = system: IGROV-1
COLO 205 = system: COLO 205
PC-3 = system: PC-3
SNB-19 = system: SNB-19
SK-MEL-5 = system: SK-MEL-5
RXF 393 = system: RXF 393
UO-31 = system: UO-31
SK-MEL-28 = system: SK-MEL-28
Malme-3M = system: Malme-3M
786-0 = system: 786-0
DU-145 = system: DU-145
Hs-578T = system: Hs-578T
HT-29 = system: HT-29
HL-60 = system: HL-60
MOLT-4 = system: MOLT-4
UACC-257 = system: UACC-257
BT-549 = system: BT-549
K562 = system: K562
HCT-116 = system: HCT-116
OVCAR-3 = system: OVCAR-3
MDA-MB-435 = system: MDA-MB-435
SNB-75 = system: SNB-75
NCI-H226 = system: NCI-H226
SF-268 = system: SF-268
TK-10 = system: TK-10
A549 = system: A549
A498 = system: A498
HCT-15 = system: HCT-15
CAKI-1 = system: CAKI-1
OVCAR-5 = system: OVCAR-5
SW-620 = system: SW-620
OVCAR-8 = system: OVCAR-8
SF-295 = system: SF-295
KM12 = system: KM12
HOP-62 = system: HOP-62
CCRF-CEM = system: CCRF-CEM
SN12C = system: SN12C
EKVX = system: EKVX
NCI-H522 = system: NCI-H522
NCI-H460 = system: NCI-H460
MDA-MB-231 = system: MDA-MB-231
HCC 2998 = system: HCC 2998
U-251 = system: U-251
ACHN = system: ACHN
RPMI-8226 = system: RPMI-8226
SF-539 = system: SF-539
MCF7 = system: MCF7
NCI/ADR-RES = system: NCI/ADR-RES
SR = system: SR
HOP-92 = system: HOP-92
LOX IMVI = system: LOX IMVI
OVCAR-4 = system: OVCAR-4
MDA-N = system: MDA-N
UACC-62 = system: UACC-62
SK-OV-3 = system: SK-OV-3
SK-MEL-2 = system: SK-MEL-2
T47D = system: T47D
M14 = system: M14

## C=CCn1c(=O)c(C(=O)Nc2nc(C34CC5CC(CC(C5)C3)C4)cs2)c(O)c2ccccc21
NCI-H23
  GI50: 34.3 µM (inactive)
IGROV-1
  GI50: 33.1 µM (inactive)
COLO 205
  GI50: 18.1 µM (inactive)
PC-3
  GI50: 43.4 µM (inactive)
SNB-19
  GI50: 53.6 µM (inactive)
SK-MEL-5
  GI50: 34.4 µM (inactive)
RXF 393
  GI50: 31.6 µM (inactive)
UO-31
  GI50: 31.8 µM (inactive)
SK-MEL-28
  GI50: 63 µM (inactive)
Malme-3M
  GI50: 26 µM (inactive)
786-0
  GI50: 39.8 µM (inactive)
DU-145
  GI50: 47.8 µM (inactive)
Hs-578T
  GI50: 32.4 µM (inactive)
HT-29
  GI50: 19.1 µM (inactive)
HL-60
  GI50: 23.4 µM (inactive)
MOLT-4
  GI50: 27.4 µM (inactive)
UACC-257
  GI50: 10.2 µM (inactive)
BT-549
  GI50: 24.4 µM (inactive)
K562
  GI50: 15.1 µM (inactive)
HCT-116
  GI50: 30 µM (inactive)
OVCAR-3
  GI50: 49.3 µM (inactive)
MDA-MB-435
  GI50: 63.4 µM (inactive)
SNB-75
  GI50: > 100 µM (inactive)
NCI-H226
  GI50: 50.7 µM (inactive)
SF-268
  GI50: > 10 µM (inactive)
TK-10
  GI50: 82.8 µM (inactive)
A549
  GI50: 18.2 µM (inactive)
A498
  GI50: 25.3 µM (inactive)
HCT-15
  GI50: 21.5 µM
CAKI-1
  GI50: 58.9 µM (inactive)
OVCAR-5
  GI50: 91.6 µM (inactive)
SW-620
  GI50: 23.5 µM (inactive)
OVCAR-8
  GI50: 82.8 µM (inactive)
SF-295
  GI50: 17.9 µM (inactive)
KM12
  GI50: 30.1 µM (inactive)
HOP-62
  GI50: 30.6 µM (inactive)
CCRF-CEM
  GI50: 37.3 µM (inactive)
SN12C
  GI50: 45.5 µM (inactive)
EKVX
  GI50: 30.5 µM (inactive)
NCI-H522
  GI50: 44 µM (inactive)
NCI-H460
  GI50: 32.9 µM (inactive)
MDA-MB-231
  GI50: 22 µM (inactive)
HCC 2998
  GI50: 37.5 µM (inactive)
U-251
  GI50: 50.2 µM (inactive)
ACHN
  GI50: 29.5 µM (inactive)
RPMI-8226
  GI50: 20.1 µM (inactive)
SF-539
  GI50: 60.8 µM (inactive)
MCF7
  GI50: 50.6 µM (inactive)
NCI/ADR-RES
  GI50: 15 µM (inactive)
SR
  GI50: 37.1 µM (inactive)
HOP-92
  GI50: 28.4 µM (inactive)
LOX IMVI
  GI50: 34 µM (inactive)
OVCAR-4
  GI50: 39.2 µM (inactive)
MDA-N
  GI50: 48.6 µM (inactive)

## CCOC(=O)C1=C(C)N(Cc2ccccc2)C2(O)C=CC(=O)C3C(=O)N(c4ccccc4)C(=O)C132 (stereo not drawn)
NCI-H23
  GI50: 2.56 µM (inactive)
IGROV-1
  GI50: 2 µM (inactive)
COLO 205
  GI50: 1.51 µM (inactive)
PC-3
  GI50: 1.92 µM (inactive)
SNB-19
  GI50: 7.52 µM (inactive)
SK-MEL-5
  GI50: 3.57 µM (inactive)
RXF 393
  GI50: 1.35 µM (inactive)
UO-31
  GI50: 1.89 µM (inactive)
SK-MEL-28
  GI50: 1.82 µM (inactive)
Malme-3M
  GI50: 2.81 µM (inactive)
786-0
  GI50: 1.59 µM (inactive)
DU-145
  GI50: 2.15 µM (inactive)
Hs-578T
  GI50: 5.4 µM (inactive)
HT-29
  GI50: 1.7 µM (inactive)
HL-60
  GI50: 1.99 µM (inactive)
MOLT-4
  GI50: 2.11 µM (inactive)
UACC-257
  GI50: 2.04 µM (inactive)
K562
  GI50: 3.66 µM (inactive)
HCT-116
  GI50: 1.15 µM (inactive)
OVCAR-3
  GI50: 2.28 µM (inactive)
MDA-MB-435
  GI50: 1.89 µM (inactive)
UACC-62
  GI50: 1.71 µM (inactive)
SK-OV-3
  GI50: 6.75 µM (inactive)
NCI-H226
  GI50: 2.45 µM (inactive)
SF-268
  GI50: 2.54 µM (inactive)
SK-MEL-2
  GI50: 1.98 µM (inactive)
TK-10
  GI50: 3.44 µM (inactive)
T47D
  GI50: 2.42 µM (inactive)
A549
  GI50: 2.86 µM (inactive)
A498
  GI50: 14.5 µM (inactive)
HCT-15
  GI50: 1.79 µM
CAKI-1
  GI50: 1.53 µM (inactive)
OVCAR-5
  GI50: 3.43 µM (inactive)
OVCAR-8
  GI50: 1.23 µM (inactive)
SF-295
  GI50: 3.58 µM (inactive)
KM12
  GI50: 1.99 µM (inactive)
HOP-62
  GI50: 2.35 µM (inactive)
CCRF-CEM
  GI50: 0.735 µM (active)
SN12C
  GI50: 2.56 µM (inactive)
EKVX
  GI50: 10.3 µM (inactive)
NCI-H522
  GI50: 1.57 µM (inactive)
NCI-H460
  GI50: 1.81 µM (inactive)
MDA-MB-231
  GI50: 3.96 µM (inactive)
HCC 2998
  GI50: 1.67 µM (inactive)
U-251
  GI50: 2.69 µM (inactive)
ACHN
  GI50: 1.63 µM (inactive)
RPMI-8226
  GI50: 1.03 µM (active)
SF-539
  GI50: 1.6 µM (inactive)
MCF7
  GI50: 2.25 µM (inactive)
NCI/ADR-RES
  GI50: 2.75 µM (inactive)
M14
  GI50: 1.81 µM (inactive)
SR
  GI50: 1.01 µM (active)
HOP-92
  GI50: 2.24 µM (inactive)
LOX IMVI
  GI50: 1.36 µM (inactive)
OVCAR-4
  GI50: 1.98 µM (inactive)
MDA-N
  GI50: 3.61 µM (inactive)

## C/C=C1\NC(=O)[C@H](Cc2ccccc2)NC(=O)[C@@H](C(C)C)NC(=O)[C@@H]([C@@H](C)CC)NC(=O)[C@H](NC(=O)[C@H](NC(=O)[C@H](CCCN)NC(=O)[C@H]2CCCN2C(=O)[C@H](NC(=O)[C@@H](NC(=O)[C@@H](NC(=O)[C@H](NC(=O)CCCC(C)C)C(C)C)[C@@H](C)O)C(C)C)C(C)C)[C@@H](C)CC)[C@@H](C)OC(=O)[C@H](C(C)C)NC1=O
NCI-H23
  GI50: 4.2 µM (inactive)
IGROV-1
  GI50: 1.44 µM (inactive)
SNB-19
  GI50: 0.347 µM (active)
SK-MEL-5
  GI50: 0.456 µM (active)
RXF 393
  GI50: 3.1 µM (inactive)
UO-31
  GI50: 2.1 µM (inactive)
SK-MEL-28
  GI50: 1.5 µM (inactive)
Malme-3M
  GI50: 2 µM (inactive)
786-0
  GI50: 1.74 µM (inactive)
HL-60
  GI50: 39.4 µM (inactive)
MOLT-4
  GI50: 12.1 µM (inactive)
BT-549
  GI50: 3.44 µM (inactive)
K562
  GI50: 3.59 µM (inactive)
OVCAR-3
  GI50: 1.36 µM (inactive)
MDA-MB-435
  GI50: 1.14 µM (inactive)
UACC-62
  GI50: 1.42 µM (inactive)
NCI-H226
  GI50: 2.23 µM (inactive)
SF-268
  GI50: 1.42 µM (inactive)
SK-MEL-2
  GI50: 2.31 µM (inactive)
TK-10
  GI50: 1.85 µM (inactive)
OVCAR-5
  GI50: 1.63 µM (inactive)
SW-620
  GI50: 0.344 µM (active)
OVCAR-8
  GI50: 4.63 µM (inactive)
SF-295
  GI50: 1.69 µM (inactive)
HOP-62
  GI50: 1.76 µM (inactive)
CCRF-CEM
  GI50: 2.86 µM (inactive)
SN12C
  GI50: 2.64 µM (inactive)
EKVX
  GI50: 0.265 µM (active)
NCI-H522
  GI50: 3.71 µM (inactive)
NCI-H460
  GI50: 1.52 µM (inactive)
U-251
  GI50: 0.344 µM (active)
SF-539
  GI50: 1.69 µM (inactive)
MCF7
  GI50: 0.461 µM (active)
NCI/ADR-RES
  GI50: 3.04 µM (inactive)
M14
  GI50: 1.38 µM (inactive)
SR
  GI50: 14.4 µM (inactive)
LOX IMVI
  GI50: 3.64 µM (inactive)
OVCAR-4
  GI50: 0.863 µM (active)
